≈ marks a conversion by molar mass, not a printed value. Positions of bridges follow the written chain, without caps; N, C: chain ends. Non-standard residues stand in square brackets, D forms with d. Residues, ends and D or L forms follow the SMILES beside them. *: point of attachment. Ethyl(2-propionyloxy) = CCC(=O)OCC*; Ethyl(2-OPiv) = CC(C)(C)C(=O)OCC*; Ethyl(2-OBz) = O=C(OCC*)c1ccccc1; Dab = NCC[C@H](N)C(=O)O; X3 = CCCC(C)C(=O)OCC*

In data set [1] the test system is kidney organoids derived from human induced pluripotent stem cells. The experiment in a line: Nephrotoxicity on kidney organoids, renal tubule deterioration by bright field imaging. Note: key: 1 = unaffected; 2 = mild deterioration; 3 = severe deterioration; 4 = complete deterioration. Type of data set: cell-based. As to conditions: scored after 48 h. As to the method:
Selected polymyxin analogues were evaluated for cytotoxicity in physiologically relevant human kidney tissue, using kidney organoids derived from human induced pluripotent stem cells (Soo et al. 2018). Monolipidated analogues 29, 31, 33, containing a propyl, decyl or phenyl lipid, dilapidated compounds, 35, 38, 39, containing a propyl, tert-butyl or phenyl, lipid, respectively and the N-capped, di-lipidated (phenyl) 49 were selected.
The control compound polymyxin B and the seven ClipPA analogues were tested by adding a range of concentrations (based on Gallado-Godoy et al. 2016) to the organoids at day 12 of the protocol, shown previously to correspond to optimal maturity of the organoid tissues.
Toxicity was scored after 48 h for signs of renal tubule deterioration visible by bright field imaging (not shown).

The test system of data set [2] is E. coli ATCC MS8345. In kind it is cell-based, Escherichia coli. The note with it: colistin-resistant strain; median of triplicate. An excerpt: (§1) All 81 compounds prepared in Examples 2 and 3 underwent screening against a panel of Gram-negative bacterium to assess their ability to inhibit bacterial growth. […] The median value is presented.
Expansion of the polymyxin macrocycle by substituting […]) offered little advantage in antimicrobial activity but was generally well tolerated although for A. baumanni and P. aeruginosa this was detrimental.

Data set [3] concerns K. pneumoniae ATCC 700603. In kind it is cell-based, Klebsiella pneumoniae. As to conditions: median of triplicate.
From the text: as §1

Data set [4] has as its system K. pneumoniae ATCC 33495. Type of data set: cell-based, Klebsiella pneumoniae. As to conditions: median of triplicate.
From the text: as §1

In data set [5] the test system is K. pneumoniae ATCC MS6671. In kind it is cell-based, Klebsiella pneumoniae. The note with it: median of triplicate.
From the text: as §1

The subject of data set [6] is E. coli ATCC 25922. Type of data set: cell-based, Escherichia coli. The note with it: median of triplicate.
From the text: as §1

The subject of data set [7] is P. aeruginosa ATCC 27853. Type of data set: cell-based, Pseudomonas aeruginosa. The note with it: median of triplicate.
From the text: as §1

For data set [8], the system named is A. baumannii ATCC 19606. Type of data set: cell-based, Acinetobacter baumannii. As to conditions: median of triplicate.
From the text: as §1

Data set [9] concerns HaCaT cell line. The experiment in a line: Cellular toxicity against HaCaT cell line. As to conditions: HaCaT cell line; for IC50 HaCaT: ± standard error. In kind it is cell-based. As to the method:
(§2) FIG. 6 is a graph showing cell survival as a function of the indicated compound concentration. Data are representative of triplicate experiments.
(§3) To evaluate if the ClipPA modifications introduced any new toxicity, inhibitory concentrations against Vero and HaCaT cell lines were determined. […] The standard error for each measurement is shown.

Data set [10] relates to Vero cell line. In words: Cellular toxicity against Vero cell line. Type of data set: cell-based. The note with it: Vero cell line; for IC50 Vero: ± standard error. As to the method: as §2, §3

`CC(=O)N[C@@H](CSCCOC(=O)c1ccccc1)C(=O)N[C@@H](CCN)C(=O)N[C@H](C(=O)N[C@@H](CCN)C(=O)N[C@H]1CCNC(=O)[C@H]([C@@H](C)O)NC(=O)[C@H](CCN)NC(=O)[C@H](CCN)NC(=O)[C@H](CSCCOC(=O)c2ccccc2)NC(=O)[C@@H](Cc2ccccc2)NC(=O)[C@H](CCN)NC1=O)[C@@H](C)O` [Compound 49] (Ac-C(Ethyl(2-OBz))[Dab]T[Dab][Dab][Dab][dF]C(Ethyl(2-OBz))[Dab][Dab]T; lactam 5-C): the “Score (nephrotoxicity on kidney organoids)” value (“Score” below) in data set [1] (100 μM) is reported as 3; in data set [1] (300 μM) it was 3; in [1] (1 mM), 4. The “MIC E. coli ATCC MS8345” value in data set [2] amounted to 16 µg/mL (≈ 10.7 µM). In addition, in data set [3], the “MIC K. pneumoniae ATCC 700603” value is 0.5 µg/mL (≈ 0.335 µM). The “MIC K. pneumoniae ATCC 33495” value in data set [4] came out at 0.5 µg/mL (≈ 0.335 µM). In data set [5], the “MIC K. pneumoniae ATCC MS6671” value was above 32 µg/mL. Moreover, the “MIC E. coli ATCC 25922” value in [6] amounted to 0.5 µg/mL (≈ 0.335 µM). Further, in [7], the “MIC P. aeruginosa ATCC 27853” value is 1 µg/mL (≈ 0.669 µM). Besides, the “MIC A. baumannii ATCC 19606” value in [8] lay within 1 to 2 µg/mL.

Colistin [reference compound]: the “IC50 HaCaT” value in data set [9] worked out at 2578 ± 11.41 µg/mL. For the same compound, the “IC50 Vero” value in data set [10] is 949.7 ± 75.35 µg/mL.

For `CCC(=O)OCCSC[C@@H]1NC(=O)[C@@H](Cc2ccccc2)NC(=O)[C@H](CCN)NC(=O)[C@@H](NC(=O)[C@H](CCN)NC(=O)[C@@H](NC(=O)[C@H](CCN)NC(=O)[C@@H](N)CSCCOC(=O)c2ccccc2)[C@@H](C)O)CCNC(=O)[C@H]([C@@H](C)O)NC(=O)[C@H](CCN)NC(=O)[C@H](CCN)NC1=O` [Compound 47] (H-C(Ethyl(2-OBz))[Dab]T[Dab][Dab][Dab][dF]C(Ethyl(2-propionyloxy))[Dab][Dab]T; lactam 5-C), the “Score” value amounted to 1 in data set [1] (100 μM), 2 in data set [1] (300 μM) and 3 in data set [1] (1 mM). Further, the “MIC E. coli ATCC MS8345” value in data set [2] is above 32 µg/mL. Besides, the “MIC K. pneumoniae ATCC 700603” value in data set [3] was in the range of 2 to 4 µg/mL. For the same compound, the “MIC K. pneumoniae ATCC 33495” value in data set [4] was 2 to 4 µg/mL. For the same compound, in data set [5], the “MIC K. pneumoniae ATCC MS6671” value is above 32 µg/mL. The “MIC E. coli ATCC 25922” value in data set [6] was in the range of 2 to 4 µg/mL. In addition, the “MIC P. aeruginosa ATCC 27853” value in data set [7] is above 32 µg/mL. Besides, in data set [8], the “MIC A. baumannii ATCC 19606” value was above 32 µg/mL.

Turning to `C[C@@H](O)[C@@H]1NC(=O)[C@H](CCN)NC(=O)[C@H](CCN)NC(=O)[C@H](CSCCOC(=O)C(C)(C)C)NC(=O)[C@@H](Cc2ccccc2)NC(=O)[C@H](CCN)NC(=O)[C@@H](NC(=O)[C@H](CCN)NC(=O)[C@@H](NC(=O)[C@H](CCN)NC(=O)[C@@H](N)CSCCOC(=O)c2ccccc2)[C@@H](C)O)CCNC1=O` [Compound 48] (H-C(Ethyl(2-OBz))[Dab]T[Dab][Dab][Dab][dF]C(Ethyl(2-OPiv))[Dab][Dab]T; lactam 5-C), the entries for the “Score” value in data set [1] (100 μM), in data set [1] (300 μM) and in [1] (1 mM) were 1, 2 and 4, respectively. Also, the “MIC E. coli ATCC MS8345” value in [2] was above 32 µg/mL. Further, the “MIC K. pneumoniae ATCC 700603” value in data set [3] was 4 µg/mL (≈ 2.79 µM). In data set [4], the “MIC K. pneumoniae ATCC 33495” value lay in the range of 2 to 4 µg/mL. Also, the “MIC K. pneumoniae ATCC MS6671” value in [5] was above 32 µg/mL. The “MIC E. coli ATCC 25922” value in data set [6] was 2 µg/mL (≈ 1.4 µM). The “MIC P. aeruginosa ATCC 27853” value in data set [7] came out at 2 µg/mL (≈ 1.4 µM). For the same compound, the “MIC A. baumannii ATCC 19606” value in data set [8] is 32 µg/mL (≈ 22.3 µM).

Regarding `C[C@@H](O)[C@@H]1NC(=O)[C@H](CCN)NC(=O)[C@H](CCN)NC(=O)[C@H](CSCCOC(=O)c2ccccc2)NC(=O)[C@@H](Cc2ccccc2)NC(=O)[C@H](CCN)NC(=O)[C@@H](NC(=O)[C@H](CCN)NC(=O)[C@@H](NC(=O)[C@H](CCN)NC(=O)[C@@H](N)CSCCOC(=O)c2ccccc2)[C@@H](C)O)CCNC1=O` [Compound 39] (H-C(Ethyl(2-OBz))[Dab]T[Dab][Dab][Dab][dF]C(Ethyl(2-OBz))[Dab][Dab]T; lactam 5-C), the “Score” value is 1 in data set [1] (100 μM), 3 in [1] (300 μM) and 4 in [1] (1 mM). In data set [2], the “MIC E. coli ATCC MS8345” value was found to be 4 µg/mL (≈ 2.75 µM). The “MIC K. pneumoniae ATCC 700603” value in data set [3] is 0.5 µg/mL (≈ 0.344 µM). Further, the “MIC K. pneumoniae ATCC 33495” value in data set [4] stood at 0.5 µg/mL (≈ 0.344 µM). Also, the “MIC K. pneumoniae ATCC MS6671” value in data set [5] was above 32 µg/mL. Further, in data set [6], the “MIC E. coli ATCC 25922” value was found to be 0.5 µg/mL (≈ 0.344 µM). Besides, the “MIC P. aeruginosa ATCC 27853” value in [7] was 2 µg/mL (≈ 1.38 µM). In addition, the “fold more toxic compared to compound 29” value in data set [9] and in [10] was around 5 fold each time. In data set [9], the “IC50 HaCaT” value worked out at 657.7 ± 87.51 µg/mL (≈ 453 µM). Besides, the “IC50 Vero” value in [10] turned out to be 521.0 ± 17.05 µg/mL (≈ 359 µM). Also, in data set [8], the “MIC A. baumannii ATCC 19606” value worked out at 2 µg/mL (≈ 1.38 µM).

With `CC(C)C[C@@H]1NC(=O)[C@@H](Cc2ccccc2)NC(=O)[C@H](CCN)NC(=O)[C@@H](NC(=O)[C@H](CCN)NC(=O)[C@@H](NC(=O)[C@H](CCN)NC(=O)[C@@H](N)CSCCOC(=O)c2ccccc2)[C@@H](C)O)CCNC(=O)[C@H]([C@@H](C)O)NC(=O)[C@H](CCN)NC(=O)[C@H](CCN)NC1=O` [Compound 33] (H-C(Ethyl(2-OBz))[Dab]T[Dab][Dab][Dab][dF]L[Dab][Dab]T; lactam 5-C), the results for the “Score” value in data set [1] (100 μM), in data set [1] (300 μM) and in [1] (1 mM) were 1, 3 and 4, respectively. For the same compound, the “MIC E. coli ATCC MS8345” value in [2] amounted to 2 µg/mL (≈ 1.52 µM). Further, in [3], the “MIC K. pneumoniae ATCC 700603” value stood at 0.25 µg/mL (≈ 0.19 µM). In data set [4], the “MIC K. pneumoniae ATCC 33495” value was found to be 0.0625 µg/mL (≈ 0.0475 µM). Further, in [5], the “MIC K. pneumoniae ATCC MS6671” value is above 32 µg/mL. In addition, the “MIC E. coli ATCC 25922” value in [6] came out at 0.25 µg/mL (≈ 0.19 µM). In [7], the “MIC P. aeruginosa ATCC 27853” value worked out at 0.5 µg/mL (≈ 0.38 µM). Further, in [8], the “MIC A. baumannii ATCC 19606” value was found to be 0.5 µg/mL (≈ 0.38 µM).

Consider `CCCC(C)C(=O)OCCSC[C@@H](N)C(=O)N[C@H](C(=O)N[C@@H](CCN)C(=O)N[C@H]1CCNC(=O)[C@H]([C@@H](C)O)NC(=O)[C@H](CCN)NC(=O)[C@H](CCN)NC(=O)[C@H](CC(C)C)NC(=O)[C@@H](Cc2ccccc2)NC(=O)[C@H](CCN)NC1=O)[C@@H](C)O` (stereo partly drawn) [Compound 94] (H-[dC](X3)T[Dab][Dab][Dab][dF]L[Dab][Dab]T; lactam 4-C), for which the “Score” value in [1] (100 μM) came to 1; in [1] (300 μM), 2; in [1] (1 mM), 3. The “MIC E. coli ATCC MS8345” value in [2] amounted to 16 µg/mL (≈ 13.2 µM). Moreover, the “MIC K. pneumoniae ATCC 700603” value in [3] came out at 2 µg/mL (≈ 1.65 µM). Besides, the “MIC K. pneumoniae ATCC 33495” value in data set [4] worked out at 1 µg/mL (≈ 0.827 µM). Besides, the “MIC K. pneumoniae ATCC MS6671” value in data set [5] is above 32 µg/mL. For the same compound, the “MIC E. coli ATCC 25922” value in data set [6] stood at 1 µg/mL (≈ 0.827 µM). Besides, the “MIC P. aeruginosa ATCC 27853” value in data set [7] worked out at 2 µg/mL (≈ 1.65 µM). Further, the “MIC A. baumannii ATCC 19606” value in data set [8] came out at 4 µg/mL (≈ 3.31 µM).
